Measurements taken from US20230203096A1, “EPHA4 TARGETING COMPOUNDS AND METHODS OF USE THEREOF” (priority 2020, published 2023).
pKd: −log10 of the molar value. Read-outs that look alike come from different tables or passages of the source. Square brackets hold non-standard residues; d marks the D form. Peptide text beside a SMILES is read from it. * marks the point of attachment. Phe(4-(2-MeO-Ph)) = COc1ccccc1-c1ccc(C[C@H](N)C(=O)O)cc1; Cyclohexanoyl(1S,3S-3-NH2) = N[C@H]1CCC[C@H](C(=O)*)C1; Trp(5-OMe) = COc1ccc2[nH]cc(C[C@H](N)C(=O)O)c2c1; Trp(5-OH) = N[C@@H](Cc1c[nH]c2ccc(O)cc12)C(=O)O; NHPh(4-CH2-morpholino) = c1cc(N*)ccc1CN1CCOCC1; NH(4-morpholinophenyl) = c1cc(N2CCOCC2)ccc1N*; Bip = N[C@@H](Cc1ccc(-c2ccccc2)cc1)C(=O)O; hArg = N=C(N)NCCCC[C@H](N)C(=O)O; X2 = Fc1cc(N*)ccc1N1CCOCC1; X3 = c1cc(N2CCNCC2)ccc1N*

Assays:
[1] = target: T1, ^13C^ε-Met-labeled EphA4-LBD (Homo sapiens, UniProt P54764, C204A); test: 2D [13C,1H] HSQC NMR chemical shift perturbation of Met resonances; assay type: binding; conditions: for Δδ ^13C^ϵ/^1H^ϵ Met 164: protein 20 μM, 20 μM of each compound; for Δδ Met 60 / Δδ Met 115 / Δδ Met 164: test ligands at 40 μM, EphA4-LDB at 20 μM, Table 8
T1 construct: His tag (N); made in house; host or cells: E. coli Rosetta-Gami B(DE3), pET15b
Description: Peptides were synthesized by using standard solid-phase synthesis protocol, using the BAL resin as anchoring for the C-terminal amines. Isothermal Titration Calorimetry (ITC) measurements were performed in a reverse fashion by titrating the protein into the ligand solution. Solution nuclear magnetic resonance (NMR) experiments were conducted on a 700 MHz Bruker Avance spectrometer equipped with a TCI cryoprobe. […]
2D [^13C,^1H] correlation NMR spectra measured with such protein targets, collected in absence or presence of test ligands can be used to monitor ligand binding and make, albeit qualitative, determinations on possible conformational changes induced by test ligands on the protein target. […] In targeting EphA4, an important aspect regarding the activity of its ligands is whether these agents could be predicted to work as antagonists or agonists.
NMR spectra were acquired on Bruker Avance III 700 MHz spectrometer equipped with a TCI cryoprobe. All NMR data were processed and analyzed using TOPSPIN 3.6.1 (Bruker, Billerica, Mass., USA).
Chemical shift changes (A) in the 2D [^13C, ^1H] spectra were calculated as weight average perturbations observed in the ^1H and ^13C dimensions using the following Equation: […]

[2] = target: T2, recombinant EphA4 ligand binding domain (Homo sapiens, UniProt P54764, C204A); test: Isothermal titration calorimetry (ITC) against EphA4-LBD
T2 construct: His tag (N); made in house; host or cells: E. coli Rosetta-Gami B(DE3), pET15b
Description: Peptides were synthesized by using standard solid-phase synthesis protocol, using the BAL resin as anchoring for the C-terminal amines. Isothermal Titration Calorimetry (ITC) measurements were performed in a reverse fashion by titrating the protein into the ligand solution. Solution nuclear magnetic resonance (NMR) experiments were conducted on a 700 MHz Bruker Avance spectrometer equipped with a TCI cryoprobe. Each protein sample was dissolved into an NMR tube at a final concentration of 20 μM (1% DMSO-d6) in the presence of 20 μM of each compound.
The fragments were transformed into Rosetta-Gami B(DE3) competent cells and grown in LB medium at 37° C. with 100 μg/mL of ampicillin until reaching an OD600 of 0.6-0.7 followed by induction with 0.4 mM IPTG overnight at 20° C. Bacteria were then collected by centrifugation and lysed by sonication at 4° C. […] EphA4 LBD with ^13C^ε/^1H^ε-Met labeled was expressed like previously described but adding a suspension of 100 mg of ^13C^ε/^1H^ε-Methionine in 1 mL of DMSO per liter of LB medium, 10 minutes before induction. […] Transformation, expression, and purification of EphA3-LBD chimera was performed as described above for EphA4-LBD.
Isothermal titration calorimetry (ITC) measurements were performed using the Affinity ITC Autosampler from TA Instruments (New Castle, Del.). The titrations were performed in a reverse fashion by titrating the protein into the ligand solution. […] The syringe was filled with a 100 μM solution of EphA4-LBD, EphA3-LBD Chimera, or EphA2-LBD, and 20 injections of 2.5 μL each were performed into the cell containing a 20 μM solution of the compounds. The injections were made at 200 s or 400 s intervals with a stirring speed of 75 rpm. All the solutions were kept in the autosampler at 4° C. The analysis of the thermodynamics signatures and for dissociation constant determination was performed by the NanoAnalyze software (TA Instruments, New Castle, Del.) and subsequently exported into Microsoft Excel.

EphA4 = conditions: reported previously; cited from earlier work
[3] = tested on: SOD1(G93A) transgenic mice; conditions: SOD1(G93A) models, literature; cited from earlier work
[4] = tested on: mouse motor neurons co-cultured with iAstrocytes derived from sALS patients; test: Co-culture of sALS patient derived iAstrocytes and motor neurons (motor neuron survival); assay type: cell-based; conditions: 100 μM
Excerpt: EphA4 has been directly implicated in the progression of ALS in mice models and in human genetic studies. While the mechanisms for onset and progression of ALS remain largely undetermined, astrocytes have been implicated as significant contributors to motor neuron death in both in familial ALS (fALS), that is driven by inactivating mutations within the superoxide dismutase 1 (SOD1) gene and that account for less than 2% of all ALS cases, (Di Giorgio et al., Nat Neurosci, 10 (5): 608-614, (2007); Nagai et al., Nat Neurosci, 10 (5): 615-622, (2007); Yamanaka et al., Nat Neurosci, 11 (3): 251-253, (2008)) and the more common sporadic form of ALS (sALS). […] Recently, it was shown that astrocytes derived from both patient groups are similarly toxic to motor neurons (Haidet-Phillips et al., Nat Biotechnol, 29 (9): 824-828, (2011)).
Induced Astrocytes were generated by seeding a low quantity of NPCs into astrocyte medium (DMEM media containing 10% FBS and 0.2% N2) for five days. Following differentiation, iAstrocytes were lifted and seeded into a 96 well (10,000 cells per well).
Cells are sorted through a 100 micron tip with sheath pressure of 27. GFP+ motor neurons were seeded in a 96 well plate (10,000 cells per well). Co-cultures were imaged with InCell for up to three days. Motor neurons with neurite outgrowth of greater than 50 um were counted as alive.

Aqueous solubility = assay type: physicochemical
[5] = ITC with the ligand binding domain, Table 8, read-out: Kd (nM) vs EphA4

T2 sequence (P54764 29-209 C204A): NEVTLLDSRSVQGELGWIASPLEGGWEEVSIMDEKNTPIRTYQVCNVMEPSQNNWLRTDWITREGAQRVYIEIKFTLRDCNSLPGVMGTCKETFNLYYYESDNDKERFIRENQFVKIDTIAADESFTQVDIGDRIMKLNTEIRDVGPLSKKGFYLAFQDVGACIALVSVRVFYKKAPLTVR
T1 sequence (P54764 29-209 C204A): as above

Row | SMILES | Δδ ^13C^ϵ/^1H^ϵ Met 164 [1] | pKd [2] | -TΔS ([2]; ITC, EphA4-LBD) [kcal/mol] | AH ([2]; ITC, EphA4-LBD) [kcal/mol] | agonistic activity for EphA4 in primary cortical neurons (EphA4) | Δδ Met 60 [1] | Δδ Met 115 [1] | Δδ Met 164 [1] | disease onset / survival [3] | protection of motor neurons from sALS astrocytes-induced death [4] | Aqueous Solubility (Aqueous solubility) [mM] | Kd ([2]; ITC, EphA4-LBD, read-out: Kd (nM)- ITC) [nM] | Kd [2, 5] [nM]
1 | N=C(N)NCCCC[C@H](NC(=O)[C@H](Cc1ccc(-c2ccccc2)cc1)NC(=O)[C@H](Cc1c[nH]c2ccc(O)cc12)NC(=O)[C@H]1CCC[C@H](N)C1)C(=O)NCC(=O)Nc1ccc(N2CCNCC2)cc1 [Compound 10] ({Cyclohexanoyl(1S,3S-3-NH2)}-[Trp(5-OH)][Bip][hArg]G-X3) | ++++ (++++ >0.25 ppm) | 7.05 | -1.35 | -8.27 | – | – | – | – | – | – | – | – | –
2 | COc1ccc2[nH]cc(CCNC(=O)[C@H](Cc3ccncc3)NC(=O)[C@H](Cc3ccc(Cl)cc3)NC(=O)[C@H](Cc3c[nH]c4ccc(O)cc34)NC(=O)CCCN)c2c1 [Compound 123C4, reference compound] | – | – | – | – | induced receptor phosphorylation and growth cone collapse | + (0< + <0.1 ppm) | + (0< + <0.1 ppm) | ++ (0.1 ppm < ++ <0.2 ppm) | significantly prolonged survival | to a lesser extent, 123C4 (at a higher concentration) were able to protect mouse motor neurons | – | – | –
3 | COc1ccccc1-c1ccc(C[C@H](NC(=O)[C@H](Cc2c[nH]c3ccc(O)cc23)NC(=O)[C@H]2CCC[C@H](N)C2)C(=O)N[C@@H](CCCCNC(=N)N)C(=O)NCC(=O)Nc2ccc(N3CCOCC3)cc2)cc1 [Compound 3, (1S,3S)-3-amino-N—((S)-1-(((S)-1-(((S)-6-guanidino-1-((2-((4-morpholinophenyl)amino)-2-oxoethyl)amino)-1-oxohexan-2-yl)amino)-3-(2′-methoxy-[1,1′-biphenyl]-4-yl)-1-oxopropan-2-yl)amino)-3-(5-hydroxy-1H-indol-3-yl)-1-oxopropan-2-yl)cyclohexane-1-carboxamide] ({Cyclohexanoyl(1S,3S-3-NH2)}-[Trp(5-OH)][Phe(4-(2-MeO-Ph))][hArg]G-{NH(4-morpholinophenyl)}) | + (0< + <0.1 ppm) | – | -0.60 | -8.92 | – | + (0< + <0.1 ppm) | + (0< + <0.1 ppm) | + (0< + <0.1 ppm) | – | – | >50 | 106 | –
4 | N=C(N)NCCCC[C@H](NC(=O)[C@H](Cc1ccc(-c2ccccc2)cc1)NC(=O)[C@H](Cc1c[nH]c2ccc(O)cc12)NC(=O)[C@H]1CCC[C@H](N)C1)C(=O)NCC(=O)Nc1ccc(CN2CCOCC2)cc1 [Compound 9, (1S,3S)—N—((S)-1-(((S)-3-([1,1′-biphenyl]-4-yl)-1-(((S)-6-guanidino-1-((2-((4-(morpholinomethyl)phenyl)amino)-2-oxoethyl)amino)-1-oxohexan-2-yl)amino)-1-oxopropan-2-yl)amino)-3-(5-hydroxy-1H-indol-3-yl)-1-oxopropan-2-yl)-3-aminocyclohexane-1-carboxamide] ({Cyclohexanoyl(1S,3S-3-NH2)}-[Trp(5-OH)][Bip][hArg]G-{NHPh(4-CH2-morpholino)}) | +++ (0.2< +++ <0.25) | – | -1.90 | -7.44 | – | ++ (0.1 ppm < ++ <0.2 ppm) | + (0< + <0.1 ppm) | +++ (0.2< +++ <0.25) | – | – | >50 | – | 144
5 | COc1ccc2[nH]cc(C[C@H](NC(=O)[C@H]3CCC[C@H](N)C3)C(=O)N[C@@H](Cc3ccc(-c4ccccc4OC)cc3)C(=O)N[C@@H](CCCCNC(=N)N)C(=O)NCC(=O)Nc3ccc(CN4CCOCC4)cc3)c2c1 [Compound 5] ({Cyclohexanoyl(1S,3S-3-NH2)}-[Trp(5-OMe)][Phe(4-(2-MeO-Ph))][hArg]G-{NHPh(4-CH2-morpholino)}) | ++ (0.1 ppm < ++ < 0.2 ppm) | 6.79 | -2.25 | -7.00 | – | – | – | – | – | – | – | – | –
6 | COc1ccc2[nH]cc(C[C@H](NC(=O)[C@H]3CCC[C@H](N)C3)C(=O)N[C@@H](Cc3ccc(-c4ccccc4)cc3)C(=O)N[C@@H](CCCCNC(=N)N)C(=O)NCC(=O)Nc3ccc(CN4CCOCC4)cc3)c2c1 [Compound 4] ({Cyclohexanoyl(1S,3S-3-NH2)}-[Trp(5-OMe)][Bip][hArg]G-{NHPh(4-CH2-morpholino)}) | +++ (0.2< +++ <0.25) | 7.00 | -3.57 | -5.99 | – | – | – | – | – | – | – | – | –
7 | COc1ccccc1-c1ccc(C[C@H](NC(=O)[C@H](Cc2c[nH]c3ccc(O)cc23)NC(=O)[C@H]2CCC[C@H](N)C2)C(=O)N[C@@H](CCCCNC(=N)N)C(=O)NCC(=O)Nc2ccc(N3CCOCC3)c(F)c2)cc1 [Compound 16] ({Cyclohexanoyl(1S,3S-3-NH2)}-[Trp(5-OH)][Phe(4-(2-MeO-Ph))][hArg]G-X2) | + (0< + <0.1 ppm) | 6.90 | 0.58 | -10.00 | – | – | – | – | – | – | – | – | –
8 | COc1ccccc1-c1ccc(C[C@H](NC(=O)[C@H](Cc2c[nH]c3ccc(O)cc23)NC(=O)[C@H]2CCC[C@H](N)C2)C(=O)N[C@@H](CCCCNC(=N)N)C(=O)NCC(=O)Nc2ccc(CN3CCOCC3)cc2)cc1 [Compound 2, (1S,3S)-3-amino-N—((S)-1-(((S)-1-(((S)-6-guanidino-1-((2-((4-(morpholinomethyl)phenyl)amino)-2-oxoethyl)amino)-1-oxohexan-2-yl)amino)-3-(2′-methoxy-[1,1′-biphenyl]-4-yl)-1-oxopropan-2-yl)amino)-3-(5-hydroxy-1H-indol-3-yl)-1-oxopropan-2-yl)cyclohexane-1-carboxamide] ({Cyclohexanoyl(1S,3S-3-NH2)}-[Trp(5-OH)][Phe(4-(2-MeO-Ph))][hArg]G-{NHPh(4-CH2-morpholino)}) | + (0< + <0.1 ppm) | 7.12 | -0.97 | -8.74 | – | ++ (0.1 ppm < ++ <0.2 ppm) | + (0< + <0.1 ppm) | + (0< + <0.1 ppm) | – | – | >50 | – | 77
